Experimental data as given in US20080312331A1, “Method of Treating Dailysis-Induced Hypotension” (SOLAPHARM, INC., priority 2005, published 2008).
“Also recorded” adds a separate entry of the source.

Experiment: Hemodialysis session in a patient with end-stage renal disease who regularly develops hypotension during dialysis (Example 2)
Assay type: in vivo
Procedure: A patient with end-stage renal disease is scheduled for hemodialysis at 11 AM. The patient's resting blood pressure is 130/80 mm Hg. At 10:40 AM the day of the 11 AM hemodialysis, the patient swallows a tablet comprising 16 mg of desglymidodrine (approximately equal in activity to 20 mg of midodrine).
In a subsequent dialysis day, the patient swallows a desglymidodrine 16 mg. tablet 20 minutes before the onset of dialysis. […] Intravenous desglymidodrine is then promptly administered by a nurse by a push infusion at a dose of 8 mg.

For `COc1ccc(OC)c(C(O)CN)c1` (stereo not drawn) [desglymidodrine], the “blood pressure after treatment of intradialytic hypotension” value (8 mg intravenous push infusion after hypotension developed one hour into the dialysis session) was “blood pressure normalizes”, the “adverse symptoms during hemodialysis” value (end-stage renal disease patient, 16 mg tablet swallowed 20 minutes before hemodialysis) was “no adverse symptoms are exhibited” and the “blood pressure during hemodialysis” value (end-stage renal disease patient, 16 mg tablet swallowed 20 minutes before onset of hemodialysis) was “blood pressure stays stable; also recorded: develops hypotension”.
